This note sets out measurements from PubChem BioAssay (NCI).

Holding throughout (assay): inhibition of tumour cell growth, NCI panel, 48 h
Test [1] concerns MOLT-4 leukemia.
In test [2] the test system is HCT-15 colon.
Test [3] relates to HT29 colon.
Test [4] has as its system EKVX NSCLC.
For test [5], the system named is SK-MEL-2 melanoma.
Test [6] has as its system SF-539 CNS.
Test [7] concerns SR leukemia.
Test [8] relates to RPMI-8226 leukemia.
Test [9] relates to SF-295 CNS.
In test [10] the test system is K-562 leukemia.

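Assay format: 96-well plates, 48-hour exposure. TGI is the concentration that stops growth completely.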

As to `CS(=O)(=O)c1nc(-c2cc3c(c(S(C)(=O)=O)n2)CCCC3)cc2c1CCCC2`, the TGI in test [1], in test [2], in test [3], in test [4], in [5] and in [6] was > 100 µM throughout. In addition, the TGI was > 100 µM in test [7], > 100 µM in [8], > 93.9 µM in test [9] and > 100 µM in [10].

Turning to `CC(Sc1ccccc1)C(CO)(CO)[N+](=O)[O-]` (stereo not given), the TGI in [1] was found to be 19.3 µM; in test [2], 30.6 µM; in [3], 32.9 µM; in test [4], 34.1 µM; in [5] it was 54 µM; in test [6], 31 µM. The TGI in [7] is 5.72 µM; in [8], 49.2 µM; in [9], 28.9 µM; in [10], 34.4 µM.

Take `COc1ccc(/C=C(\C#N)c2nc(N)nc(N3N=C(C)CC3(C)C)n2)c(O)c1`: the TGI in test [1] amounted to 34.1 µM; in [2], 35.3 µM; in [3] it was 44.5 µM; in test [4] it was 47.9 µM; in [5], 38.9 µM; in test [6], 29.1 µM. The TGI was 35.7 µM in test [7], 98.7 µM in [8], 43 µM in test [9] and 84.7 µM in test [10].
